Legend:
[1] = tested on: pBR322, linearized with HindIII; assay: DNA cross-linking by 365 nm UV irradiation, alkaline gel electrophoresis; assay type: biochemical; settings: 5 nmoles, 1 microgram DNA, 20 min 365 nm UV
Protocol: DNA: CsCl purified pBR322, linearized with HindIII and resuspended in TE at a concentration of 30 nanogram/microliter hormone derivative: cortisol-C4psoralen resuspended in 100% methanol at a concentration of 10 exp(−3) Molar psoralen (Fluka) resuspended in 100% ethanol at a concentration of 10 exp(−3)Molar.
Irradiation buffer: 50 mM Tris (pH=7.5), 0.1 mM EDTA, 10 mM NaCl, 10 mM MgCl2 crosslinker apparatus: Bio-Link (BLX) equipped with 4 UV lamps (T-8.L, 365 nanometer nominal wave length) 1 microgram of DNA (in 33 microliter) is mixed at room temperature with 5 nmoles cortisol-C4-psoralen or plain psoralen (either in 5 microliter) and 33 microliter irradiation buffer and pipetted into a well (final volume: 71 microliter) The 96× wells plate is then covered by its plastic lid and put on top of an ice-bed in a plastic box inside the crosslinker apparatus. The cooled microwell plate is irradiated for 20 min with 365 nm UV light (corresponds to an approximate value of 16 joules/square cm). The cross-linked products are then precipitated 2 times with ethanol and resuspended in TE. The products are compared to non-irradiated samples by alkaline gel electrophoresis, where cross-linked DNA maintains its double-stranded molecular weight.

[2] = tested on: GR-GFP chimera; assay: Nuclear Transfer Induction assay (NTI), monourethane ligands, HeLa cells; assay type: cell-based; settings: 1 hr
Protocol: Conditions: HeLa cells are transiently transfected by CaPO4 with an expression vector encoding a GR-GFP chimera (5 μg in transfection cocktail, 4 cm diameter dishes, DMEM with 3% FCS). After 24 hour expression, ligand is added for 1 hr and cells are fixed with formaldehyde (5 min 4° C.) and inspected by fluorescence microscopy. Fluorescent cells are counted and divided into different classes according to ‘cytoplasmic’ (C) versus ‘nuclear’ (N) localisation of fluorescence.
First column: “Conditions”: Name of compounds added (marked at top: ‘//ligand’), and their concentration (in parentheses) and assay number (01 through 21).
Values are given as percentage of cells displaying the corresponding localisatidn, within each tested condition the sum is 100%.

[3] = tested on: CV-1 cells reconstituted with exogenous GR; assay: Transfection enhancement, CMV-LacZ reporter, CV-1 cells reconstituted with exogenous GR; assay type: cell-based, monkey; settings: CV-1 cells that have not been supplemented with GR; data not shown
[4] = tested on: 3Y1 cells; assay: Transfection enhancement, CMV-LacZ reporter, CaPO4 transfection of 3Y1 cells; assay type: cell-based, rat; settings: for light units (relative luminescence, LacZ): 5 μg reporter, 3Y1
Protocol: Conditions: 3Y1 cells are transfected with an expression vector that is constitutively expressing the reporter gene LacZ (CMV-LacZ). Transfection conditions are identical throughout the various samples (total 10-12 μq DNA for 4 cm dishes). In some samples the DNA used for the transfection cocktail is pre-incubated with various conjugates at the given concentrations. The concentrations are calculated to give from 10−8 to 10−6 M after dispersing the CaPO4 precipitate in the recipient dish (5 ml volume). Transfection is performed O/N and after rinsing of the precipitate the cells are further incubated for 24 hours. LacZ levels are determined from cell extracts with a chemiluminescence LacZ enzyme assay (Galactolight plus. Tropix). The relative luminescence from each extract is given in RLU/mg*1000.
Cell culture. Cells are cultivated in DMEM supplemented with serum and antibiotica according to standard conditions (typically 10% FCS and Pen/Strep as antibiotica). At the day of transfection, cells are trypsinized and seeded at around 25-30% confluency. Cells are allowed to adhere to dish for 4-6 hours prior to transfection.
DNA pre-incubation (example for conditions that give5×10 exp (−6) Molar final concentration of the CL-C4-EtBr conjugate):
5 microgram of CMV-LacZ DNA (in 10 microliter TE) are mixed with 10 nmoles of hormone derivative (10 microliters stock solution) and incubated for 10 min at room temperature (final volume: 20 ul). The DNA/cortisol-C4-ethidum mix is then supplemented with 7 micrograms sheared calf thymus carrier DNA (in 14 microliters TE) and bidistilled water to give a final volume of 125 microliters.
Transfection by CaPO4: to each transfection sample (125 microliter volume DNA+water). 125 microliters of Ca ++ mix are added, and the mix is incubated for 5-10 min at room temperature. Each sample is then supplemented with 250 microliter of Pi-mix (with simultaneous mixing by up-down pipetting) and is further incubated 10 minutes at room temperature after which the cocktail is poured on top of the medium (5 ml) of each cell culture dish (4 cm diameter). The optimal time of incubation after Pi-mix addition is pre-determined by prior evaluation (size of the precipitate) of parallel samples. The precipitate is allowed to deposit onto the cells for 15 hours (incubation of 37 degrees, 5% CO2). The cells are then rinsed twice with Tris-buffered Saline, supplemented with fresh medium and further incubated under standard conditions. To analyze LacZ reporter gene function, the cells are either fixed or harvested 24 hours after precipitate removal.
Variation of parameters: samples in which the C1-C4-EtBr conjugates (or control compounds) are used at different concentrations, are similarly treated, except that the concentration of the stock solution in ethanol is correspondingly varied.

[5] = tested on: HUH-7 cells; assay: Transfection enhancement, CMV-LacZ reporter, HUH-7 cells; assay type: cell-based, human
Protocol: Conditions: HUH-7 cells are human hepatoma cells that contain substantial amounts of glucocorticoid receptor. The cells are transfected with an expression vector that is constitutively expressing the reporter gene LacZ (CMV-LacZ). Transfection conditions and analysis of LacZ reporter are the same as described in Example 7 legend. Transfection is performed O/N and after rinsing of the precipitate the cells are further incubated for 24 hours. LacZ levels are determined from cell extracts with a chemiluminescence LacZ enzyme assay (Galactolight plus, Tropix). The relative luminescence from each extract is given. Each value represents an individual extract. “Induction”: relative reporter gene activity (values divided by value of assay in lane 9, true negative control for DNA liganding). rel/RLU=(RLU:protein)×1000; net=rel/RLU−600 (600=rel/RLU value approximately corresponding to rel/RLU value of mock transfection).

[6] = tested on: CV-1 cells reconstituted with exogenous GR; assay: Transfection enhancement, CMV-LacZ reporter, CV-1 cells reconstituted with exogenous GR; assay type: cell-based, monkey
Protocol: Conditions: CV-1 cells are first infected with an adenovirus system allowing expression of GR in >90% of the cells (S. B. Verca, unpublished). After 24 hours the cells are; transfected with an expression vector that is constitutively expressing the reporter gene LacZ (CMV-LacZ). Transfection conditions and analysis of LacZ reporter are the same as described in Example 7 legend. Transfection is performed O/N and after rinsing of the precipitate the cells are further incubated for 24 hours. LacZ levels are determined from cell extracts with a chemiluminescence LacZ enzyme assay (Galactolight plus, Tropix). The relative luminescence from each extract is given. Each value represents an individual extract. “Induction”: relative reporter gene activity (values divided by value of assay in lane 9, true negative control for liganding), rel/RLU=(RLU:protein)×1000, net=rel/RLU−600 (600=rel/RLU value approximately corresponding to rel/RLU value of mock transfection).

Cc1oc2c(C)c3oc(=O)cc(C)c3cc2c1CNC(=O)CCNC(=O)OCC(=O)[C@@]1(O)CCC2C3CCC4=CC(=O)CCC4(C)C3C(O)CC21C (stereo partly drawn) [CL-C4-Pso]
DNA cross-linking efficiency [1]: as efficient as cross-linking with free psoralen | C < N, percentage of cells ([2]; ligand 1.10-6M): 63% | C << N, percentage of cells ([2]; ligand 1.10-6M): 8% | C = N, percentage of cells ([2]; ligand 1.10-6M): 29% | C > N, percentage of cells ([2]; ligand 1.10-6M): 0% | C >> N, percentage of cells ([2]; ligand 1.10-6M): 0% | C < N, percentage of cells ([2]; ligand 1.10-7M): 5% | C << N, percentage of cells ([2]; ligand 1.10-7M): 0% | C = N, percentage of cells ([2]; ligand 1.10-7M): 75% | C > N, percentage of cells ([2]; ligand 1.10-7M): 20% | C >> N, percentage of cells ([2]; ligand 1.10-7M): 0%

CC[n+]1c(-c2ccccc2)c2cc(NC(=O)CCNC(=O)OCC(=O)[C@@]3(O)CCC4C5CCC6=CC(=O)CCC6(C)C5C(O)CC43C)ccc2c2ccc(N)cc21 (stereo partly drawn) [CL-C4-EtBr]
SMGD effect (transfection enhancement) [3]: No SMGD effect | improvement of expression ([4]; lane 10 (10^-6M) versus lanes 11-13, 3Y1): 5-7 fold | light units (relative luminescence, LacZ) ([4]; ligand 10^-6M): 7250 RLU/mg*1000 | light units (relative luminescence, LacZ) ([4]; ligand 10^-7M): 3750 RLU/mg*1000 | light units (relative luminescence, LacZ) ([4]; ligand 10^-8M): 2750 RLU/mg*1000 | improvement of expression ([5]; lane 07 (10-6) versus lanes 8-9, HUH-7): 7-8 fold | RLU ([5]; ligand 10-6, HUH-7): 629514 | induction (relative reporter gene activity, divided by value of lane 9) ([5]; ligand 10-6, HUH-7): 7.84 | net ([5]; ligand 10-6, HUH-7): 543 | rel/RLU ([5]; ligand 10-6, HUH-7): 673.3 | RLU ([5]; ligand 10-7, HUH-7): 198082 | induction (relative reporter gene activity, divided by value of lane 9) ([5]; ligand 10-7, HUH-7): 1.95 | net ([5]; ligand 10-7, HUH-7): 135 | rel/RLU ([5]; ligand 10-7, HUH-7): 265.2 | C < N, percentage of cells ([2]; ligand 1.10-6M): 45% | C << N, percentage of cells ([2]; ligand 1.10-6M): 0% | C = N, percentage of cells ([2]; ligand 1.10-6M): 55% | C > N, percentage of cells ([2]; ligand 1.10-6M): 0% | C >> N, percentage of cells ([2]; ligand 1.10-6M): 0% | C < N, percentage of cells ([2]; ligand 1.10-7M): 9% | C << N, percentage of cells ([2]; ligand 1.10-7M): 0% | C = N, percentage of cells ([2]; ligand 1.10-7M): 74% | C > N, percentage of cells ([2]; ligand 1.10-7M): 17% | C >> N, percentage of cells ([2]; ligand 1.10-7M): 0% | improvement of expression ([6]; lane 06 (10-6) versus lanes 7-9, CV-1 with GR): 15-20 fold | RLU ([6]; ligand 10-6, CV-1 with GR): 10010 | induction (relative reporter gene activity, divided by value of lane 9) ([6]; ligand 10-6, CV-1 with GR): 17.3 | net = rel/RLU−600 ([6]; ligand 10-6, CV-1 with GR): 13992 | rel/RLU = (RLU:protein)×1000 ([6]; ligand 10-6, CV-1 with GR): 14592 | RLU ([6]; ligand 10-7, CV-1 with GR): 1988 | induction (relative reporter gene activity, divided by value of lane 9) ([6]; ligand 10-7, CV-1 with GR): 2.75 | net = rel/RLU−600 ([6]; ligand 10-7, CV-1 with GR): 2232 | rel/RLU = (RLU:protein)×1000 ([6]; ligand 10-7, CV-1 with GR): 2831.9 | RLU ([6]; ligand 10-8, CV-1 with GR): 1211 | induction (relative reporter gene activity, divided by value of lane 9) ([6]; ligand 10-8, CV-1 with GR): 1.33 | net = rel/RLU−600 ([6]; ligand 10-8, CV-1 with GR): 1075 | rel/RLU = (RLU:protein)×1000 ([6]; ligand 10-8, CV-1 with GR): 1675
